Results: patent US20150252026A1, “4-(INDOLYL OR BENZIMIDAZOLYL)AMINO-2-(2-(INDOL-3-YL)ETHYL)AMINOPYRIMIDINES USEFUL FOR THE TREATMENT OF CANCER” (NOVIGA RESEARCH AB, priority 2012, published 2015)

Assays:
[1] = test system: colchicine site on tubulin (porcine brain tubulin); test: Colchicine displacement assay, fluorometric detection; type: binding; conditions: compound 20 μM, colchicine 2 μM, porcine brain tubulin 2 μM, 2 h; control = colchicine bound to tubulin
Method: To study whether the compounds bind to the colchicine site on tubulin, a colchicine displacement assay using fluorometric detection was performed as previously described (Bhattacharyya B. et al.; Proc Natl Acad Sci USA 1974, 71:2627-31; Risinger A L. et al.; J Pharmacol Exp Ther 2011; 336:652-60). Porcine brain tubulin at 2 μM (Cytoskeleton) in a buffer consisting of 80 mM PIPES, 2 mM MgCl2, 0.5 mM EGTA at pH 7.0 with addition of 1 mM GTP, was incubated alone, with 2 μM colchicine or with 2 μM colchicine in the presence of test compounds or reference compound combretastatin A4 at 20 μM for 2 h in a black half-area 96-well plate (Corning Inc, Corning, N.Y., USA). Thereafter, the fluorescence was measured using a FLUOStar Optima (BMG Labtech) at an excitation of 380 nm and emission of 440 nm. The results are presented as percent of control i.e. colchicine bound to tubulin.

[2] = test system: acute lymphoblastic leukemia cell line CCRF-CEM; test: Fluorometric Microculture Cytotoxicity Assay (FMCA) in CCRF-CEM cells; type: cell-based; conditions: Homo sapiens, FMCA after 72 h
Description: (§1) The Fluorometric Microculture Cytotoxicity Assay, FMCA (Larsson, R., et al.; Anticancer Res, 1989, 9, 1111-1119), is a three day non-clonogenic microplate-based cell viability assay used for measurement of the cytotoxic and/or cytostatic effect of compounds in vitro (Lindhagen, E. et al.; Nat. Protoc., 2008, 3, 1364-1369). FMCA represents a valuable method to measure cytotoxicity in a number of cell types, both cell lines and primary cells from patients (Larsson, R., et al.; Int. J. Cancer, 1992, 50, 177-185; Fridborg, H., et al.; Eur. J. Cancer, 1999. 35, 424-432; Dhar, S., et al.; Br. J. Cancer, 1996, 74, 888-896).
(§2) FMCA is based on the principle that fluorescein diacetate (FDA) is converted to the fluorescent probe fluorescein by esterases […]. For experiments, 96-well microplates are prepared with compounds and stored at −20° C. or −70° C. until use. Cells are then seeded into the drug-prepared plates and placed in an incubator for 72 h. On the last day of incubation, the plates are washed and a buffer containing FDA is added and incubated with the cells for 45 minutes. Finally the fluorescence per well is measured in a fluorometer and a Survival Index % (SI) for each compound-treated well is calculated with the equation: Compound-treated cells minus blank divided by control cells minus blank. A high SI-value indicates a large percentage of living cells and vice versa.
For experiments with compounds of the invention, 96-well plates were prepared as follows:
Compounds were dissolved in DMSO to 10 mM and stored at −20° C. The test compounds were thawed, protected from light, mixed, and 3 μl stock solution was added to test tubes containing 297 μl culture medium RPMI-1640, to give the concentration 100 μM. Then, compounds were serially diluted to concentrations ten times higher than the desired test concentrations. Finally, 20 μl of each compound solution was added in duplicates to wells in two V-bottomed 96-well plates. The plates were stored at −20° C. until use.
On the day of cell seeding, 180 μl of cell suspension was added to each well in the two assay plates. The final concentrations of compounds tested were 10 μM, 1 μM, 0.1 μM and 0.01 μM. The experiment was performed twice.
In subsequent experiments, compounds were tested, along with a number of approved cancer drugs (dasatinib and pazopanib) as described above. The acute lymphoblastic leukemia cell line CCRF-CEM was used throughout. In the assay plates, medium was added to eight empty wells (blank wells) and wells filled with cell suspension served as control wells. SI-values were then calculated for each compound-treated well as described above. All experiments were conducted twice and a new batch of plates was prepared for each experiment.
(§3) To obtain EC50-values, plates were prepared with compounds serially diluted in culture media to suitable concentration ranges for each compound. Thereafter cells were added at a density of 10 000 cells per well and FMCA was performed after 72 h. Data analysis was performed using GraphPadPrism software, where SI values for each concentration were plotted on a log scale and processed with non-linear regression and a standard sigmoidal dose-response model.

A2780 (ovarian cancer) = test: FMCA cell viability in ovarian cancer cell line A2780; type: cell-based; conditions: Homo sapiens; A2780 ovarian cancer cells
Description: as §1, §2, §3
(§4) The compounds of the invention were also tested on further cancer cell lines related to ovarian cancer (A2780; see e.g. Hamilton, T. et al.; Semin. Oncol., 1984, 11, 285-298) and multidrug-resistant ovarian cancer (A2780/Adr). The known microtubule interfering agents vincristine and paclitaxel were included as references in the resistant and non-resistant ovarian cancer cell lines.

[3] = test system: A2780/Adr (multidrug-resistant ovarian cancer); test: FMCA cell viability in multidrug-resistant ovarian cancer cell line A2780/Adr; type: cell-based; conditions: A2780/Adr multidrug-resistant ovarian cancer cells
Description: as §1, §2, §3, §4

bovine tubulin protein = test: Tubulin polymerization assay kit (Cytoskeleton Inc), fluorescence; type: biochemical; conditions: for inhibitory effects on tubulin polymerization (in words): cell-free, 1, 3 and 10 μM; for IC50: cell-free, example compounds at 1, 3 and 10 μM, controls at 3 μM, 60 min, read-out: Inhibition of tubulin polymerization IC50
Method: Example compounds were further tested in a tubulin polymerization assay kit from Cytoskeleton Inc (Denver, Colo., USA). Polymerization is followed by fluorescence enhancement due to the incorporation of a fluorescent reporter into microtubules as polymerization occurs. Vincristine and paclitaxel at 3 μM were used as positive controls for tubulin polymerization inhibition and stabilisation, respectively. All compounds were dissolved in DMSO, which was used as solvent control. For experiments, example compounds (1, 3, and 10 μM) and control compounds (3 μM) were incubated with bovine tubulin protein in a cell-free environment and the fluorescence was then measured in a fluorometer (Fluostar Optima, BMG Labtech, Offenburg, Germany) at 360/450 nm every minute for a total of 60 mins.

| Structure (SMILES) | Colchicine-tubulin binding Percent of control [1] | EC50 (A2780 (ovarian cancer)) | EC50 [3] | IC50 (bovine tubulin protein) | EC50 [2] | inhibitory effects on tubulin polymerization (in words) (bovine tubulin protein) |
| --- | --- | --- | --- | --- | --- | --- |
| COc1ccc(/C=C\c2cc(OC)c(OC)c(OC)c2)cc1O [Combretastatin A4, combretastatin A4, reference compound] | 66% of control | – | – | – | – | – |
| CCOc1ccc2[nH]cc(CCNc3nccc(Nc4ccc5c(c4)nc(C)n5C)n3)c2c1 [Example 1, N^4-(1 2-dimethyl-1H-benzo[d]imidazol-5-yl)-N^2-[2-(5-ethoxy-1H-indol-3-yl)ethyl]pyrimidine-2,4-diamine] | 95% of control | 0.017 µM | 0.38 µM | 1 to 3 µM | 0.012 µM | showed inhibitory effects on tubulin polymerization |
| COc1ccc2[nH]cc(CCNc3nccc(Nc4cccc5c4ncn5C)n3)c2c1 [Example 2, N^2-[2-(5-methoxy-1H-indol-3-yl)ethyl]-N^4-(1-methylbenzimidazol-4-yl)pyrimidine-2,4-diamine] | 81% of control | 0.0033 µM | 0.017 µM | 1 to 3 µM | 0.0097 µM | showed inhibitory effects on tubulin polymerization |
| CCOc1ccc2[nH]cc(CCNc3nccc(Nc4cccc5c4ncn5C)n3)c2c1 [Example 3, N^2-[2-(5-ethoxy-1H-indol-3-yl)ethyl]-N^4-(1-methylbenzimidazol-4-yl)pyrimidine-2,4-diamine] | – | 0.0092 µM | 0.024 µM | – | 0.0056 µM | – |
| CCOc1ccc2[nH]cc(CCNc3nc(C)cc(Nc4ccc5[nH]ccc5c4)n3)c2c1 [Example 4, N^2-[2-(5-ethoxy-1H-indol-3-yl)ethyl]-N^4-(1H-indol-5-yl)-6-methyl-pyrimidine-2,4-diamine] | – | 0.95 µM | 0.93 µM | > 10 µM | 0.8 µM | – |
| Cc1nc(Nc2ncc(C(=O)Nc3c(C)cccc3Cl)s2)cc(N2CCN(CCO)CC2)n1 [Ref. 1, dasatinib, reference compound] | – | – | – | – | 9.7 µM | – |
| Cc1ccc(Nc2nccc(N(C)c3ccc4c(C)n(C)nc4c3)n2)cc1S(N)(=O)=O [Ref. 2, pazopanib, reference compound] | – | – | – | – | 25.9 µM | – |

Continued, in another order:

| Colchicine-tubulin binding Percent of control [1] | EC50 (A2780 (ovarian cancer)) | EC50 [3] | IC50 (bovine tubulin protein) | Structure (SMILES) | EC50 [2] | inhibitory effects on tubulin polymerization (in words) (bovine tubulin protein) |
| --- | --- | --- | --- | --- | --- | --- |
| – | 0.13 µM | 0.4 µM | 3 to 10 µM | COc1ccc2[nH]cc(CCNc3nc(C)cc(Nc4ccc5cc(C)[nH]c5c4)n3)c2c1 [Example 5, N^2-[2-(5-methoxy-1H-indol-3-yl)ethyl]-6-methyl-N^4-(2-methyl-1H-indol-6-yl)pyrimidine-2,4-diamine] | 0.1 µM | showed inhibitory effects on tubulin polymerization |
| – | 0.17 µM | 0.45 µM | – | CCOc1ccc2[nH]cc(CCNc3nc(C)cc(Nc4ccc5cc(C)[nH]c5c4)n3)c2c1 [Example 6] | 0.069 µM | – |
| – | 0.012 µM | 0.053 µM | – | COc1ccc2[nH]cc(CCNc3nc(C)cc(Nc4cccc5c4ccn5C)n3)c2c1 [Example 7, N^2-[2-(5-methoxy-1H-indol-3-yl)ethyl]-6-methyl-N^4-(1-methylindol-4-yl)pyrimidine-2,4-diamine] | 0.032 µM | – |
| 82% of control | 0.048 µM | 0.13 µM | ~3 µM | CCOc1ccc2[nH]cc(CCNc3nc(C)cc(Nc4cccc5c4ccn5C)n3)c2c1 [Example 8, N^2-[2-(5-ethoxy-1H-indol-3-yl)ethyl]-6-methyl-N^4-(1-methylindol-4-yl)pyrimidine-2,4-diamine] | 0.11 µM | showed inhibitory effects on tubulin polymerization |
| – | 0.00026 µM | 0.81 µM | – | CC(=O)O[C@H]1C(=O)[C@@]2(C)[C@H]([C@H](OC(=O)c3ccccc3)[C@]3(O)C[C@H](OC(=O)[C@H](O)[C@@H](NC(=O)c4ccccc4)c4ccccc4)C(C)=C1C3(C)C)[C@]1(OC(C)=O)CO[C@@H]1C[C@@H]2O [Paclitaxel, paclitaxel, reference compound] | – | – |
| – | 0.00022 µM | 0.21 µM | < 3 µM | CC[C@]1(O)C[C@H]2CN(CCc3c([nH]c4ccccc34)[C@@](C(=O)OC)(c3cc4c(cc3OC)N(C=O)[C@H]3[C@@](O)(C(=O)OC)[C@H](OC(C)=O)[C@]5(CC)C=CCN6CC[C@]43[C@@H]65)C2)C1 [Vincristine, vincristine, reference compound] | – | – |
